Data published in PubChem BioAssay (NCI).
Values joined by “and” are separate entries in the source; they are usually repeats but may differ in a detail not shown here. Equal values may be shown once.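 Where inhibition never reached the appropriate level, the endpoint shown equals the highest concentration tested. Otherwise, values were interpolated linearly from a five-concentration, 48-hour dose response in 96-well plates. At the GI50, growth is halved. TGI denotes the concentration required for complete inhibition of growth.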

Legend:
Test in all cases: NCI tumour cell line growth inhibition, 48 h
786-0 renal = system: 786-0 renal
A498 renal = system: A498 renal
A549 NSCLC = system: A549 NSCLC
ACHN renal = system: ACHN renal
BT-549 breast = system: BT-549 breast
CAKI-1 renal = system: CAKI-1 renal
CCRF-CEM leukemia = system: CCRF-CEM leukemia
COLO 205 colon = system: COLO 205 colon
DU-145 prostate = system: DU-145 prostate
EKVX NSCLC = system: EKVX NSCLC
HCC-2998 colon = system: HCC-2998 colon
HCT-116 colon = system: HCT-116 colon
HCT-15 colon = system: HCT-15 colon
HL-60(TB) leukemia = system: HL-60(TB) leukemia
HOP-62 NSCLC = system: HOP-62 NSCLC
HOP-92 NSCLC = system: HOP-92 NSCLC
HS 578T breast = system: HS 578T breast
HT29 colon = system: HT29 colon
IGROV1 ovarian = system: IGROV1 ovarian
K-562 leukemia = system: K-562 leukemia
KM12 colon = system: KM12 colon
LOX IMVI melanoma = system: LOX IMVI melanoma
M14 melanoma = system: M14 melanoma
MALME-3M melanoma = system: MALME-3M melanoma
MCF7 breast = system: MCF7 breast
MDA-MB-231 breast = system: MDA-MB-231 breast
MDA-MB-435 = system: MDA-MB-435
MOLT-4 leukemia = system: MOLT-4 leukemia
NCI-H226 lung = system: NCI-H226 lung

Structure (SMILES): NC1(c2ccc(-c3nc4ccn5c(=O)[nH]nc5c4cc3-c3ccccc3)cc2)CCC1
- GI50 (786-0 renal): 816 nM and 697 nM and 1150 nM
- TGI (786-0 renal): 11.9 µM and > 9.66 µM and 14.7 µM
- GI50 (A498 renal): 41.1 nM and 42.6 nM and 112 nM
- TGI (A498 renal): 432 nM and 319 nM and 865 nM
- GI50 (A549 NSCLC): 4.33 µM and 6.07 µM and 7.9 µM
- TGI (A549 NSCLC): 20.5 µM and > 10 µM and 23.6 µM
- GI50 (ACHN renal): 3.05 µM and > 10 µM and 10.5 µM
- TGI (ACHN renal): 14.9 µM and > 10 µM and 22.4 µM
- GI50 (BT-549 breast): 462 nM and 621 nM and 1570 nM
- TGI (BT-549 breast): 13.6 µM and > 10 µM and 16 µM
- GI50 (CAKI-1 renal): 5.01 µM and > 2.69 µM and 4.86 µM
- TGI (CAKI-1 renal): 20 µM and > 10 µM and 20.7 µM
- GI50 (CCRF-CEM leukemia): 362 nM and 488 nM and 402 nM
- TGI (CCRF-CEM leukemia): 15.6 µM and > 10 µM and 13.7 µM
- GI50 (COLO 205 colon): 461 nM and 651 nM and 1810 nM
- TGI (COLO 205 colon): 12.4 µM and > 10 µM and 18.4 µM
- GI50 (DU-145 prostate): 13.6 µM and > 10 µM and 13.3 µM
- TGI (DU-145 prostate): 26.7 µM and > 10 µM and 26.4 µM
- GI50 (EKVX NSCLC): 3.65 µM and > 10 µM and 1.41 µM
- TGI (EKVX NSCLC): 22.8 µM and > 10 µM and 18.5 µM
- GI50 (HCC-2998 colon): 3.35 µM and > 6.01 µM and 3.61 µM
- TGI (HCC-2998 colon): 18.6 µM and > 10 µM and 19.7 µM
- GI50 (HCT-116 colon): 5.49 µM and > 6.86 µM and 11.3 µM
- TGI (HCT-116 colon): 19.3 µM and > 10 µM and 27.8 µM
- GI50 (HCT-15 colon): 2.92 µM and > 6.16 µM and 10.4 µM
- TGI (HCT-15 colon): 17.5 µM and > 10 µM and 23.9 µM
- GI50 (HL-60(TB) leukemia): 9.79 µM and > 7.36 µM and 12.3 µM
- TGI (HL-60(TB) leukemia): 27.2 µM and > 10 µM and 28.8 µM
- GI50 (HOP-62 NSCLC): 3.84 µM and > 10 µM and 10.7 µM
- TGI (HOP-62 NSCLC): 15.9 µM and > 10 µM and 26.2 µM
- GI50 (HOP-92 NSCLC): 35 nM and 113 nM and 163 nM
- TGI (HOP-92 NSCLC): 3.5 µM and > 2.63 µM and 5.61 µM
- GI50 (HS 578T breast): 171 nM and 184 nM and 280 nM
- TGI (HS 578T breast): 7.4 µM and > 2.73 µM and 4.3 µM
- GI50 (HT29 colon): 1500 nM and 2340 nM and 3020 nM
- TGI (HT29 colon): 9.7 µM and > 10 µM and 24.6 µM
- GI50 (IGROV1 ovarian): 87.8 nM and 198 nM and 407 nM
- TGI (IGROV1 ovarian): 13.6 µM and > 10 µM and 9.33 µM
- GI50 (K-562 leukemia): 5.43 µM and > 5.59 µM and 9.99 µM
- TGI (K-562 leukemia): 18.2 µM and > 10 µM and 29.1 µM
- GI50 (KM12 colon): 6.86 µM and > 8.08 µM and 12.2 µM
- TGI (KM12 colon): 20.8 µM and > 10 µM and 25.8 µM
- GI50 (LOX IMVI melanoma): 4.94 µM and > 6.27 µM and 11.8 µM
- TGI (LOX IMVI melanoma): 16.5 µM and > 10 µM and 24.6 µM
- GI50 (M14 melanoma): 4.69 µM and > 10 µM and 13.1 µM
- TGI (M14 melanoma): 9.71 µM and > 10 µM and 28.7 µM
- TGI (MALME-3M melanoma): 3 µM and > 10 µM and 24.3 µM
- TGI (MCF7 breast): 6.37 µM and > 10 µM and 17.5 µM
- GI50 (MDA-MB-231 breast): 10.7 µM and > 10 µM and 13.5 µM
- TGI (MDA-MB-231 breast): 23.8 µM and > 10 µM and 26.7 µM
- GI50 (MDA-MB-435): 5.47 µM and > 10 µM and 10.8 µM
- TGI (MDA-MB-435): 21.8 µM and > 10 µM and 23 µM
- GI50 (MOLT-4 leukemia): 353 nM and 531 nM and 313 nM
- TGI (MOLT-4 leukemia): 14.1 µM and > 10 µM and 10.9 µM
- GI50 (NCI-H226 lung): 12.2 µM and > 10 µM and 11.6 µM
- TGI (NCI-H226 lung): 25.9 µM and > 10 µM and 26.4 µM
